Data taken from publication PMC6946680, “Modulation of brain cation-Cl^− cotransport via the SPAK kinase inhibitor ZT-1a” (Nature Communications, 2020).

Tests used:
Experiment in all cases: Kinase profiling panel
Type in all cases: biochemical
TTBK1 = system: TTBK1
Protocol: (§1) Supplementary Table 2. ZT-1a kinase profiling data6.
(§2) ZT-1a was tested at 10 and 1 µM against a panel of 140 recombinant kinases in an enzymatic
(§3) activity-based assay performed by the International Centre for Kinase Profiling in the MRC
(§4) Protein Phosphorylation and Ubiquitylation Unit. Values represent % residual kinase activity

VEG-FR = system: VEG-FR
Protocol: as §1, §2, §3, §4

HIPK2 = system: HIPK2
Protocol: as §1, §2, §3, §4

TESK1 = system: TESK1
Protocol: as §1, §2, §3, §4

ROCK 2 = system: ROCK 2
Protocol: as §1, §2, §3, §4

PDGFRA = system: PDGFRA
Protocol: as §1, §2, §3, §4

MAP4K5 = system: MAP4K5
Protocol: as §1, §2, §3, §4

GCK = system: GCK
Protocol: as §1, §2, §3, §4

PRAK = system: PRAK
Protocol: as §1, §2, §3, §4

SRPK1 = system: SRPK1
Protocol: as §1, §2, §3, §4

RSK2 = system: RSK2
Protocol: as §1, §2, §3, §4

MAPKAP-K3 = system: MAPKAP-K3
Protocol: as §1, §2, §3, §4

MARK3 = system: MARK3
Protocol: as §1, §2, §3, §4

EPH-B1 = system: EPH-B1
Protocol: as §1, §2, §3, §4

EIF2AK3 = system: EIF2AK3
Protocol: as §1, §2, §3, §4

MST4 = system: MST4
Protocol: as §1, §2, §3, §4

BTK = system: BTK
Protocol: as §1, §2, §3, §4

EPH-B4 = system: EPH-B4
Protocol: as §1, §2, §3, §4

MARK4 = system: MARK4
Protocol: as §1, §2, §3, §4

PAK5 = system: PAK5
Protocol: as §1, §2, §3, §4

TIE2 = system: TIE2
Protocol: as §1, §2, §3, §4

MAP4K3 = system: MAP4K3
Protocol: as §1, §2, §3, §4

MEKK1 = system: MEKK1
Protocol: as §1, §2, §3, §4

CHK1 = system: CHK1
Protocol: as §1, §2, §3, §4

GSK3b = system: GSK3b
Protocol: as §1, §2, §3, §4

YES1 = system: YES1
Protocol: as §1, §2, §3, §4

JAK2 = system: JAK2
Protocol: as §1, §2, §3, §4

MPSK1 = system: MPSK1
Protocol: as §1, §2, §3, §4

TGFBR1 = system: TGFBR1
Protocol: as §1, §2, §3, §4

TTBK2 = system: TTBK2
Protocol: as §1, §2, §3, §4

EPH-A4 = system: EPH-A4
Protocol: as §1, §2, §3, §4

MELK = system: MELK
Protocol: as §1, §2, §3, §4

PKBb = system: PKBb
Protocol: as §1, §2, §3, §4

DYRK2 = system: DYRK2
Protocol: as §1, §2, §3, §4

p38b MAPK = system: p38b MAPK
Protocol: as §1, §2, §3, §4

WNK1 = system: WNK1
Protocol: as §1, §2, §3, §4

ERK5 = system: ERK5
Protocol: as §1, §2, §3, §4

PDK1 = system: PDK1
Protocol: as §1, §2, §3, §4

p38a MAPK = system: p38a MAPK
Protocol: as §1, §2, §3, §4

ULK2 = system: ULK2
Protocol: as §1, §2, §3, §4

PAK6 = system: PAK6
Protocol: as §1, §2, §3, §4

CSK = system: CSK
Protocol: as §1, §2, §3, §4

PIM3 = system: PIM3
Protocol: as §1, §2, §3, §4

CDK9-Cyclin T1 = system: CDK9-Cyclin T1
Protocol: as §1, §2, §3, §4

## Cc1cc(C(C#N)c2ccc(Cl)cc2)c(Cl)cc1NC(=O)c1cc(Cl)ccc1O (stereo not shown) [ZT-1a, 5-chloro-N-(5-chloro-4-((4-chlorophenyl)(cyano)methyl)-2-methylphenyl)-2-hydroxybenzamide]
TTBK1; 1 µM
  % residual kinase activity: 119±5%
TTBK1; 10 µM
  % residual kinase activity: 102±2%
VEG-FR; 1 µM
  % residual kinase activity: 113±10%
VEG-FR; 10 µM
  % residual kinase activity: 88±28%
HIPK2; 1 µM
  % residual kinase activity: 90±14%
HIPK2; 10 µM
  % residual kinase activity: 91±4%
TESK1; 1 µM
  % residual kinase activity: 109±3%
TESK1; 10 µM
  % residual kinase activity: 77±10%
ROCK 2; 1 µM
  % residual kinase activity: 109±6%
ROCK 2; 10 µM
  % residual kinase activity: 101±10%
PDGFRA; 1 µM
  % residual kinase activity: 84±11%
PDGFRA; 10 µM
  % residual kinase activity: 80±7%
MAP4K5; 1 µM
  % residual kinase activity: 95±28%
MAP4K5; 10 µM
  % residual kinase activity: 76±9%
GCK; 1 µM
  % residual kinase activity: 112±4%
GCK; 10 µM
  % residual kinase activity: 97±3%
PRAK; 1 µM
  % residual kinase activity: 78±13%
PRAK; 10 µM
  % residual kinase activity: 41±7%
SRPK1; 1 µM
  % residual kinase activity: 104±5%
SRPK1; 10 µM
  % residual kinase activity: 73±20%
RSK2; 1 µM
  % residual kinase activity: 116±5%
RSK2; 10 µM
  % residual kinase activity: 101±3%
MAPKAP-K3; 1 µM
  % residual kinase activity: 96±26%
MAPKAP-K3; 10 µM
  % residual kinase activity: 72±8%
MARK3; 1 µM
  % residual kinase activity: 71±6%
MARK3; 10 µM
  % residual kinase activity: 68±8%
EPH-B1; 1 µM
  % residual kinase activity: 77±15%
EPH-B1; 10 µM
  % residual kinase activity: 80±19%
EIF2AK3; 1 µM
  % residual kinase activity: 114±2%
EIF2AK3; 10 µM
  % residual kinase activity: 100±3%
MST4; 1 µM
  % residual kinase activity: 63±10%
MST4; 10 µM
  % residual kinase activity: 63±0%
BTK; 1 µM
  % residual kinase activity: 113±1%
BTK; 10 µM
  % residual kinase activity: 73±2%
EPH-B4; 1 µM
  % residual kinase activity: 100±8%
EPH-B4; 10 µM
  % residual kinase activity: 151±33%
MARK4; 1 µM
  % residual kinase activity: 68±8%
MARK4; 10 µM
  % residual kinase activity: 59±9%
PAK5; 1 µM
  % residual kinase activity: 93±26%
PAK5; 10 µM
  % residual kinase activity: 93±4%
TIE2; 1 µM
  % residual kinase activity: 139±74%
TIE2; 10 µM
  % residual kinase activity: 73±11%
MAP4K3; 1 µM
  % residual kinase activity: 134±5%
MAP4K3; 10 µM
  % residual kinase activity: 88±2%
MEKK1; 1 µM
  % residual kinase activity: 109±1%
MEKK1; 10 µM
  % residual kinase activity: 93±16%
CHK1; 1 µM
  % residual kinase activity: 111±11%
CHK1; 10 µM
  % residual kinase activity: 109±8%
GSK3b; 1 µM
  % residual kinase activity: 39±4%
GSK3b; 10 µM
  % residual kinase activity: 38±12%
YES1; 1 µM
  % residual kinase activity: 109±3%
YES1; 10 µM
  % residual kinase activity: 98±7%
JAK2; 1 µM
  % residual kinase activity: 125±6%
JAK2; 10 µM
  % residual kinase activity: 123±8%
MPSK1; 1 µM
  % residual kinase activity: 110±6%
MPSK1; 10 µM
  % residual kinase activity: 105±2%
TGFBR1; 1 µM
  % residual kinase activity: 63±9%
TGFBR1; 10 µM
  % residual kinase activity: 77±5%
TTBK2; 1 µM
  % residual kinase activity: 101±32%
TTBK2; 10 µM
  % residual kinase activity: 98±34%
EPH-A4; 1 µM
  % residual kinase activity: 59±33%
EPH-A4; 10 µM
  % residual kinase activity: 90±11%
MELK; 1 µM
  % residual kinase activity: 130±34%
MELK; 10 µM
  % residual kinase activity: 63±3%
PKBb; 1 µM
  % residual kinase activity: 76±14%
PKBb; 10 µM
  % residual kinase activity: 51±13%
DYRK2; 1 µM
  % residual kinase activity: 111±15%
DYRK2; 10 µM
  % residual kinase activity: 97±10%
p38b MAPK; 1 µM
  % residual kinase activity: 124±1%
p38b MAPK; 10 µM
  % residual kinase activity: 124±0%
WNK1; 1 µM
  % residual kinase activity: 125±17%
WNK1; 10 µM
  % residual kinase activity: 122±35%
ERK5; 1 µM
  % residual kinase activity: 120±9%
ERK5; 10 µM
  % residual kinase activity: 114±5%
PDK1; 1 µM
  % residual kinase activity: 92±6%
PDK1; 10 µM
  % residual kinase activity: 69±17%
p38a MAPK; 1 µM
  % residual kinase activity: 128±7%
p38a MAPK; 10 µM
  % residual kinase activity: 113±2%
ULK2; 1 µM
  % residual kinase activity: 110±11%
ULK2; 10 µM
  % residual kinase activity: 49±9%
PAK6; 1 µM
  % residual kinase activity: 69±2%
PAK6; 10 µM
  % residual kinase activity: 75±4%
CSK; 1 µM
  % residual kinase activity: 96±8%
CSK; 10 µM
  % residual kinase activity: 106±29%
PIM3; 1 µM
  % residual kinase activity: 115±12%
PIM3; 10 µM
  % residual kinase activity: 99±2%
CDK9-Cyclin T1; 1 µM
  % residual kinase activity: 104±0%
CDK9-Cyclin T1; 10 µM
  % residual kinase activity: 108±1%
